Experimental data published in the supplement of paper PMC10883282.
± gives the standard deviation of the averaged measurements.

How the values were obtained:
Experiment in all cases: relative viability vs DMSO control (72 h) (fraction); higher = more viable cells
G401 = test system: G401
How it was run: (§1)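 Relative viability was measured with ATPLite and expressed as percent growth, averaged across up to triplicate wells. Sarcoma cell lines had been seeded in 384-well plates to reach 80–90% confluence, dosed after 24 h, and incubated 72 h at 37 °C, 5% CO2. All data were rescaled on a scale where 1 is full and 0 is none.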

HT1080 = test system: HT1080
How it was run: as §1

KHOS-240S = test system: KHOS-240S
How it was run: as §1

MES-SA = test system: MES-SA
How it was run: as §1

RD-ES = test system: RD-ES
How it was run: as §1

RD = test system: RD
How it was run: as §1

SK-ES-1 = test system: SK-ES-1
How it was run: as §1

SK-LMS-1 = test system: SK-LMS-1
How it was run: as §1

SW1353 = test system: SW1353
How it was run: as §1

SW982 = test system: SW982
How it was run: as §1

SYO-1 = test system: SYO-1
How it was run: as §1

VA-ES-BJ = test system: VA-ES-BJ
How it was run: as §1

SMILES: CCCCCCCCCCCCCCCCCCOP(=O)([O-])OC1CC[N+](C)(C)CC1 [Perifosine]
- relative viability (G401; 0.00017 µM): 1.057 ± 0.0047
- relative viability (G401; 0.00051 µM): 1.06 ± 0.011
- relative viability (G401; 0.00152 µM): 1.07 ± 0.0054
- relative viability (G401; 0.00457 µM): 1.07 ± 0.018
- relative viability (G401; 0.01372 µM): 1.06 ± 0.034
- relative viability (G401; 0.04115 µM): 1.059 ± 0.0094
- relative viability (G401; 0.1235 µM): 1.064 ± 0.0048
- relative viability (G401; 0.3704 µM): 1.06 ± 0.019
- relative viability (G401; 1.111 µM): 1.05 ± 0.028
- relative viability (G401; 3.333 µM): 1.03 ± 0.011
- relative viability (G401; 10 µM): 1.06 ± 0.023
- relative viability (HT1080; 0.00017 µM): 1.1 ± 0.034
- relative viability (HT1080; 0.00051 µM): 1.083 ± 0.0073
- relative viability (HT1080; 0.00152 µM): 1.07 ± 0.043
- relative viability (HT1080; 0.00457 µM): 1.06 ± 0.013
- relative viability (HT1080; 0.01372 µM): 1.063 ± 0.0078
- relative viability (HT1080; 0.04115 µM): 1.06 ± 0.046
- relative viability (HT1080; 0.1235 µM): 1.04 ± 0.035
- relative viability (HT1080; 0.3704 µM): 1.0633 ± 0.00028
- relative viability (HT1080; 1.111 µM): 1.04 ± 0.044
- relative viability (HT1080; 3.333 µM): 1.037 ± 0.0079
- relative viability (HT1080; 10 µM): 1.05 ± 0.025
- relative viability (KHOS-240S; 0.00017 µM): 1.09 ± 0.029
- relative viability (KHOS-240S; 0.00051 µM): 1.1 ± 0.051
- relative viability (KHOS-240S; 0.00152 µM): 1.11 ± 0.049
- relative viability (KHOS-240S; 0.00457 µM): 1.1 ± 0.033
- relative viability (KHOS-240S; 0.01372 µM): 1.1 ± 0.059
- relative viability (KHOS-240S; 0.04115 µM): 1.09 ± 0.04
- relative viability (KHOS-240S; 0.1235 µM): 1.09 ± 0.026
- relative viability (KHOS-240S; 0.3704 µM): 1.08 ± 0.029
- relative viability (KHOS-240S; 1.111 µM): 1.09 ± 0.061
- relative viability (KHOS-240S; 3.333 µM): 1.04 ± 0.033
- relative viability (KHOS-240S; 10 µM): 0.818 ± 0.04
- relative viability (MES-SA; 0.00017 µM): 0.987 ± 0.012
- relative viability (MES-SA; 0.00051 µM): 0.982 ± 0.021
- relative viability (MES-SA; 0.00152 µM): 0.998 ± 0.015
- relative viability (MES-SA; 0.00457 µM): 0.974 ± 0.022
- relative viability (MES-SA; 0.01372 µM): 0.96 ± 0.016
- relative viability (MES-SA; 0.04115 µM): 0.922 ± 0.012
- relative viability (MES-SA; 0.1235 µM): 0.953 ± 0.021
- relative viability (MES-SA; 0.3704 µM): 0.936 ± 0.03
- relative viability (MES-SA; 1.111 µM): 0.855 ± 0.043
- relative viability (MES-SA; 3.333 µM): 0.918 ± 0.031
- relative viability (MES-SA; 10 µM): 0.781 ± 0.032
- relative viability (RD-ES; 0.00017 µM): 0.985 ± 0.018
- relative viability (RD-ES; 0.00051 µM): 1 ± 0.014
- relative viability (RD-ES; 0.00152 µM): 1.03 ± 0.043
- relative viability (RD-ES; 0.00457 µM): 1.002 ± 0.0085
- relative viability (RD-ES; 0.01372 µM): 0.978 ± 0.02
- relative viability (RD-ES; 0.04115 µM): 0.989 ± 0.033
- relative viability (RD-ES; 0.1235 µM): 1.02 ± 0.028
- relative viability (RD-ES; 0.3704 µM): 1.01 ± 0.012
- relative viability (RD-ES; 1.111 µM): 0.985 ± 0.037
- relative viability (RD-ES; 3.333 µM): 0.983 ± 0.03
- relative viability (RD-ES; 10 µM): 0.996 ± 0.028
- relative viability (RD; 0.00017 µM): 1.05 ± 0.044
- relative viability (RD; 0.00051 µM): 1.07 ± 0.064
- relative viability (RD; 0.00152 µM): 1.09 ± 0.089
- relative viability (RD; 0.00457 µM): 1.11 ± 0.064
- relative viability (RD; 0.01372 µM): 1.07 ± 0.058
- relative viability (RD; 0.04115 µM): 1.07 ± 0.07
- relative viability (RD; 0.1235 µM): 1.1 ± 0.044
- relative viability (RD; 0.3704 µM): 1.07 ± 0.044
- relative viability (RD; 1.111 µM): 1.08 ± 0.052
- relative viability (RD; 3.333 µM): 1.09 ± 0.039
- relative viability (RD; 10 µM): 0.997 ± 0.032
- relative viability (SK-ES-1; 0.00017 µM): 1.08 ± 0.056
- relative viability (SK-ES-1; 0.00051 µM): 1.06 ± 0.021
- relative viability (SK-ES-1; 0.00152 µM): 1.07 ± 0.013
- relative viability (SK-ES-1; 0.00457 µM): 1.02 ± 0.013
- relative viability (SK-ES-1; 0.01372 µM): 0.975 ± 0.013
- relative viability (SK-ES-1; 0.04115 µM): 0.951 ± 0.033
- relative viability (SK-ES-1; 0.1235 µM): 1.05 ± 0.04
- relative viability (SK-ES-1; 0.3704 µM): 0.996 ± 0.015
- relative viability (SK-ES-1; 1.111 µM): 1.05 ± 0.029
- relative viability (SK-ES-1; 3.333 µM): 1.02 ± 0.024
- relative viability (SK-ES-1; 10 µM): 1.01 ± 0.041
- relative viability (SK-LMS-1; 0.00017 µM): 1.01 ± 0.024
- relative viability (SK-LMS-1; 0.00051 µM): 1.05 ± 0.018
- relative viability (SK-LMS-1; 0.00152 µM): 1.02 ± 0.051
- relative viability (SK-LMS-1; 0.00457 µM): 1.06 ± 0.026
- relative viability (SK-LMS-1; 0.01372 µM): 1.01 ± 0.037
- relative viability (SK-LMS-1; 0.04115 µM): 0.994 ± 0.046
- relative viability (SK-LMS-1; 0.1235 µM): 1.02 ± 0.035
- relative viability (SK-LMS-1; 0.3704 µM): 1.01 ± 0.055
- relative viability (SK-LMS-1; 1.111 µM): 0.848 ± 0.15
- relative viability (SK-LMS-1; 3.333 µM): 0.836 ± 0.096
- relative viability (SK-LMS-1; 10 µM): 0.68 ± 0.031
- relative viability (SW1353; 0.00017 µM): 1.11 ± 0.012
- relative viability (SW1353; 0.00051 µM): 1.1 ± 0.043
- relative viability (SW1353; 0.00152 µM): 1.09 ± 0.022
- relative viability (SW1353; 0.00457 µM): 1.08 ± 0.035
- relative viability (SW1353; 0.01372 µM): 1.04 ± 0.022
- relative viability (SW1353; 0.04115 µM): 1.04 ± 0.036
- relative viability (SW1353; 0.1235 µM): 1.05 ± 0.033
- relative viability (SW1353; 0.3704 µM): 1.07 ± 0.025
- relative viability (SW1353; 1.111 µM): 1.03 ± 0.025
- relative viability (SW1353; 3.333 µM): 1.02 ± 0.022
- relative viability (SW1353; 10 µM): 1.06 ± 0.038
- relative viability (SW982; 0.00017 µM): 1.02 ± 0.022
- relative viability (SW982; 0.00051 µM): 1.04 ± 0.031
- relative viability (SW982; 0.00152 µM): 1.06 ± 0.018
- relative viability (SW982; 0.00457 µM): 1.08 ± 0.018
- relative viability (SW982; 0.01372 µM): 1.1 ± 0.017
- relative viability (SW982; 0.04115 µM): 1.08 ± 0.034
- relative viability (SW982; 0.1235 µM): 1.1 ± 0.036
- relative viability (SW982; 0.3704 µM): 1.08 ± 0.033
- relative viability (SW982; 1.111 µM): 1.06 ± 0.035
- relative viability (SW982; 3.333 µM): 1.06 ± 0.047
- relative viability (SW982; 10 µM): 0.88 ± 0.026
- relative viability (SYO-1; 0.00017 µM): 1.01 ± 0.026
- relative viability (SYO-1; 0.00051 µM): 1.012 ± 0.01
- relative viability (SYO-1; 0.00152 µM): 0.99 ± 0.033
- relative viability (SYO-1; 0.00457 µM): 1.01 ± 0.046
- relative viability (SYO-1; 0.01372 µM): 0.977 ± 0.06
- relative viability (SYO-1; 0.04115 µM): 0.965 ± 0.084
- relative viability (SYO-1; 0.1235 µM): 0.97 ± 0.056
- relative viability (SYO-1; 0.3704 µM): 0.946 ± 0.051
- relative viability (SYO-1; 1.111 µM): 0.941 ± 0.057
- relative viability (SYO-1; 3.333 µM): 0.903 ± 0.042
- relative viability (SYO-1; 10 µM): 0.901 ± 0.059
- relative viability (VA-ES-BJ; 0.00017 µM): 1.08 ± 0.025
- relative viability (VA-ES-BJ; 0.00051 µM): 1.09 ± 0.016
- relative viability (VA-ES-BJ; 0.00152 µM): 1.05 ± 0.033
- relative viability (VA-ES-BJ; 0.00457 µM): 1.1 ± 0.033
- relative viability (VA-ES-BJ; 0.01372 µM): 1.07 ± 0.026
- relative viability (VA-ES-BJ; 0.04115 µM): 1.091 ± 0.0089
- relative viability (VA-ES-BJ; 0.1235 µM): 1.06 ± 0.038
- relative viability (VA-ES-BJ; 0.3704 µM): 1.05 ± 0.038
- relative viability (VA-ES-BJ; 1.111 µM): 1.05 ± 0.046
- relative viability (VA-ES-BJ; 3.333 µM): 1.02 ± 0.053
- relative viability (VA-ES-BJ; 10 µM): 0.2547 ± 0.0024
